From paper PMC8119466, “A screen of FDA-approved drugs identifies inhibitors of protein tyrosine phosphatase 4A3 (PTP4A3 or PRL-3)” (Scientific Reports, 2021)
Structures can show the parent of a compound that is named as a salt. Where two headings read alike, the source gives them in different places.

Columns and labels:
Type in all cases: biochemical
[1] = biological target: T1, recombinant PRL-1 (Homo sapiens, UniProt Q93096); experiment: In vitro phosphatase assay (DiFMUP hydrolysis), PRL-1; also: test concentration or dose not given here
T1 construct: 6xHis (N, cleaved yes); made in house; host or cells: E. coli One Shot BL21 Star
T1 sequence (Q93096 1-173): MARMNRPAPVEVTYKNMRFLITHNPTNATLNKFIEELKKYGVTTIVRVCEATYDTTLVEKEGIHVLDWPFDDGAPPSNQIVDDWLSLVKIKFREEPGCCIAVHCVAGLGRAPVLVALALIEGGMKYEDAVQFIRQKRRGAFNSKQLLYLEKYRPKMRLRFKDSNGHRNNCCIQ

[2] = biological target: T2, recombinant PRL-2 (Homo sapiens, UniProt Q12974); experiment: In vitro phosphatase assay (DiFMUP hydrolysis), PRL-2;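 also: PRL-2 activity read as DiFMUP hydrolysis after 20 min at room temperature with drug, enzyme first pre-reduced at 4 °C for 20 min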
T2 construct: 6xHis (N, cleaved yes); made in house; host or cells: E. coli One Shot BL21 Star
T2 sequence (Q12974 1-167): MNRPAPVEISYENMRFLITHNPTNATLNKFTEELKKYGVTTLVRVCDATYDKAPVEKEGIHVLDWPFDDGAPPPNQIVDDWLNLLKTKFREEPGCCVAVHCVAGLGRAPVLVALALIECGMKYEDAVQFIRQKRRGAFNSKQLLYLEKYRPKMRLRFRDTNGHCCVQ

[3] = biological target: T3, recombinant PRL-3 (Homo sapiens, UniProt O75365); experiment: In vitro phosphatase assay (DiFMUP hydrolysis), PRL-3; also: test concentration or dose not given here
T3 construct: 6xHis (N, cleaved yes); made in house; host or cells: E. coli One Shot BL21 Star
T3 sequence (O75365 whole entry): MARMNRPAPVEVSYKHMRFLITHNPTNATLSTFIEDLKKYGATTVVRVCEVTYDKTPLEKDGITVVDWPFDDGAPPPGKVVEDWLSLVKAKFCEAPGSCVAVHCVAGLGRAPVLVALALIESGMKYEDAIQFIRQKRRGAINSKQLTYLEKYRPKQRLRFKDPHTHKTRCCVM

[4] = FDA-approved drug screen, compared to DMSO

Compound	% Phosphatase Activity (compared to DMSO) PRL-1 [1, 4] [%]	% Phosphatase Activity (compared to DMSO) PRL-2 [2, 4] [%]	% Phosphatase Activity (compared to DMSO) PRL-3 [3, 4] [%]	% Phosphatase Activity (compared to DMSO) PRL-1 [1] [%]	% Phosphatase Activity (compared to DMSO) PRL-2 [2] [%]	% Phosphatase Activity (compared to DMSO) PRL-3 [3] [%]
CNC[C@H](O)[C@@H](O)[C@H](O)[C@H](O)CO.CNC[C@H](O)[C@@H](O)[C@H](O)[C@H](O)CO.C[C@@H](O[C@H]1OCCN(Cc2nn(P(=O)(O)O)c(=O)[nH]2)[C@H]1c1ccc(F)cc1)c1cc(C(F)(F)F)cc(C(F)(F)F)c1 [Fosaprepitant dimeglumine salt]	87	94	85			
O=C(O)P(=O)(O)O [Foscarnet Sodium]	109	109	91			
C[C@@H]1O[C@@H]1P(=O)(O)O.NC(CO)(CO)CO [Fosfomycin Tromethamine]	100	101	92			
CCC(=O)O[C@@H](O[P@](=O)(CCCCc1ccccc1)CC(=O)N1C[C@H](C2CCCCC2)C[C@H]1C(=O)[O-])C(C)C.[Na+] [Fosinopril Sodium]	91	69	80			
COc1cc(Nc2ncc(F)c(Nc3ccc4c(n3)N(COP(=O)(O)O)C(=O)C(C)(C)O4)n2)cc(OC)c1OC [Fostamatinib (R788)]	92	111	96			
C[C@]12CC[C@@H]3c4ccc(O)cc4C[C@@H](CCCCCCCCC[S+]([O-])CCCC(F)(F)C(F)(F)F)[C@H]3[C@@H]1CC[C@@H]2O (stereo partly drawn) [Fulvestrant]	99	91	82			
Cl.O=C1OC(CN2CCOCC2)CN1/N=C/c1ccc([N+](=O)[O-])o1 (stereo not drawn) [Furaltadone HCl]	74	80	65			
NS(=O)(=O)c1cc(C(=O)O)c(NCc2ccco2)cc1Cl [Furosemide]	97	107	114			
CC(=O)O[C@H]1C[C@@]2(C)[C@@H](C[C@@H](O)[C@H]3[C@@]4(C)CC[C@@H](O)[C@@H](C)[C@@H]4CC[C@@]32C)/C1=C(\CCC=C(C)C)C(=O)O [Fusidate Sodium]	87	79	66			
c1cn2cc(-c3ccc4cn[nH]c4c3)nc(Nc3ccc(N4CCOCC4)cc3)c2n1 [GS-9973]	294	209	104			
COc1ncc(-c2ccc3nccc(-c4ccnnc4)c3c2)cc1NS(=O)(=O)c1ccc(F)cc1F [GSK2126458 (GSK458)]	94	85	88			
Cl.NCC1(CC(=O)O)CCCCC1 [Gabapentin HCl]	99	87	85			
NCC1(CC(=O)O)CCCCC1 [Gabapentin]	105	92	87			
CCOC(=O)c1ccc(OC(=O)CCCCCN=C(N)N)cc1.CS(=O)(=O)O [Gabexate Mesylate]	93	103	80			
C[C@]12CC[C@H](O)CC1=CC[C@@H]1[C@@H]2CC[C@]2(C)C(n3cnc4ccccc43)=CC[C@@H]12 [Galeterone]	90	98	96			
CC[N+](CC)(CC)CCOc1cccc(OCC[N+](CC)(CC)CC)c1OCC[N+](CC)(CC)CC [Gallamine Triethiodide]	104	105	84			
O=C(O)c1cc(O)c(O)c(O)c1 [Gallic acid]	100	76	80			

Compound	% Phosphatase Activity (compared to DMSO) PRL-1 [1, 4] [%]	% Phosphatase Activity (compared to DMSO) PRL-2 [2, 4] [%]	% Phosphatase Activity (compared to DMSO) PRL-3 [3, 4] [%]	% Phosphatase Activity (compared to DMSO) PRL-1 [1] [%]	% Phosphatase Activity (compared to DMSO) PRL-2 [2] [%]	% Phosphatase Activity (compared to DMSO) PRL-3 [3] [%]
Nc1nc(O)c2ncn(COC(CO)CO)c2n1 [Ganciclovir]	90	98	99			
CC(C)c1cc(-c2n[nH]c(=O)n2-c2ccc3c(ccn3C)c2)c(O)cc1O [Ganetespib (STA-9090)]	91	97	89			
COc1c(N2CCNC(C)C2)c(F)cc2c(=O)c(C(=O)O)cn(C3CC3)c12 (stereo not drawn) [Gatifloxacin]	146	187	122			
COc1cc2ncnc(Nc3ccc(F)c(Cl)c3)c2cc1OCCCN1CCOCC1 [Gefitinib (ZD1839)]	93	102	77			
Nc1ccn([C@@H]2O[C@H](CO)[C@@H](O)C2(F)F)c(=O)n1 [Gemcitabine HCl]	93	78	94			
Nc1ccn([C@@H]2O[C@H](CO)[C@@H](O)C2(F)F)c(=O)n1 [Gemcitabine]	109	100	77			
Cc1ccc(C)c(OCCCC(C)(C)C(=O)O)c1 [Gemfibrozil]	93	95	76			
O=c1c(-c2ccc(O)cc2)coc2cc(O)cc(O)c12 [Genistein]	95	100	64			
C#C[C@]1(O)C=C[C@H]2[C@@H]3CCC4=CC(=O)CC[C@@H]4[C@H]3CC[C@@]21CC [Gestodene]	91	102	77			
Oc1cc(O)c(Cl)cn1 [Gimeracil]	102	97	94			
Cl.O=C(OCC(O)CO)c1ccccc1Nc1ccnc2cc(Cl)ccc12 (stereo not drawn) [Glafenine HCl]	77	71	80			
Cc1ccc(S(=O)(=O)NC(=O)NN2CC3CCCC3C2)cc1 (stereo not drawn) [Gliclazide]	112	138	94			
CCC1=C(C)CN(C(=O)NCCc2ccc(S(=O)(=O)NC(=O)N[C@H]3CC[C@H](C)CC3)cc2)C1=O [Glimepiride]	84	88	76			
Cc1cnc(C(=O)NCCc2ccc(S(=O)(=O)NC(=O)NC3CCCCC3)cc2)cn1 [Glipizide]				97	98	75
COc1ccc2c(c1)C(=O)N(CCc1ccc(S(=O)(=O)NC(=O)NC3CCCCC3)cc1)C(=O)C2(C)C [Gliquidone]	99	86	86			
O=C1O[C@H](CO)[C@@H](O)[C@H](O)[C@H]1O [Gluconolactone]	103	98	82			
